Reference: patent US20240208964A1, “PYRIDOPYRIMIDINES AND METHODS OF THEIR USE” (PYRIDOPYRIMIDINES AND METHODS OF THEIR USE, priority 2020, published 2024)
Like-named read-outs stand apart in the source and are kept apart here.

Key:
[1] = test system: PIKFYVE TDP-43 yeast strain; assay: Propidium iodide viability assay in PIKFYVE TDP-43 yeast strain; type: cell-based; conditions: Saccharomyces cerevisiae; reduction in PI-positive cells, 24 hours, up to 15 μM
From the text: Generation of TDP-43 yeast model expressing human PIKfyve. Human PIKFYVE (“entry clone”) was cloned into pAG416GPDccdB (“destination vector”) according to standard Gateway cloning protocols (Invitrogen, Life Technologies). The resulting pAG416GPD-PIKFYVE plasmids were amplified in E. coli and plasmid identity confirmed by restriction digest and Sanger sequencing. Lithium acetate/polyethylene glycol-based transformation was used to introduce the above PIKFYVE plasmid into a BY4741 yeast strain auxotrophic for the ura3 gene and deleted for two transcription factors that regulate the xenobiotic efflux pumps, a major efflux pump, and FAB1, the yeast ortholog of PIKFYVE (MATa, snq2::KILeu2; pdr3::Klura3;pdrl::NATMX; fab1::G418^R, his3;leu2;ura3;met15;LYS2+) (FIG. 2). Transformed yeast were plated on solid agar plates with complete synthetic media lacking uracil (CSM-ura) and containing 2% glucose. Individual colonies harboring the control or PIKFYVE TDP-43 plasmids were recovered. A plasmid containing wild-type TDP-43 under the transcriptional control of the GAL1 promoter and containing the hygromycin-resistance gene as a selectable marker was transformed into the fab1::G418^R pAG416GPD-PIKFYVE yeast strain (FIG. 1). Transformed yeast were plated on CSM-ura containing 2% glucose and 200 μg/mL […] after overnight recovery in media lacking antibiotic. Multiple independent isolates were further evaluated for cytotoxicity and TDP-43 expression levels.
Viability Assay. A control yeast strain with the wild-type yeast FAB1 gene and TDP-43 (“FAB1 TDP-43”, carries empty pAG416 plasmid), and the “PIKFYVE TDP-43” yeast strain, were assessed for toxicity using a propidium iodide viability assay. Both yeast strains were transferred from solid CSM-ura/2% glucose agar plates into 3 mL of liquid CSM-ura/2% glucose media for 6-8 hours at 30° C. with aeration. Yeast cultures were then diluted to an optical density at 600 nm wavelength (OD600) of 0.005 in 3 mL of CSM-ura/2% raffinose and grown overnight at 30° C. with aeration to an OD600 of 0.3-0.8. Log-phase overnight cultures were diluted to OD600 of 0.005 in CSM-ura containing either 2% raffinose or galactose and 150 μL dispensed into each well of a flat bottom 96-well plates. Compounds formulated in 100% dimethyl sulfoxide (DMSO) were serially diluted in DMSO and 1.5 μL diluted compound transferred to the 96-well plates using a multichannel pipet. Wells containing DMSO alone were also evaluated as controls for compound effects. Tested concentrations ranged from 15 μM to 0.11 μM. Cultures were immediately mixed to ensure compound distribution and covered plates incubated at 30° C. for 24 hours in a stationary, humified incubator.
Upon the completion of incubation, cultures were assayed for viability using propidium iodide (PI) to stain for dead/dying cells. A working solution of PI was made where, for each plate, 1 μL of 10 mM PI was added to 10 mL of CSM-ura (raffinose or galactose). The final PI solution (50 μL/well) was dispensed into each well of a new round bottom 96-well plate. The overnight 96-well assay plate was then mixed with a multichannel pipet and 50 μL transferred to the PI-containing plate. This plate was then incubated for 30 minutes at 30° C. in the dark. A benchtop flow cytometer (Miltenyi MACSquant) was then used to assess red fluorescence (B2 channel), forward scatter, and side scatter (with following settings: gentle mix, high flow rate, fast measurement, 10,000 events). Intensity histograms were then gated for “PI-positive” or “PI-negative” using the raffinose and galactose cultures treated with DMSO as controls. The DMSO controls for raffinose or galactose-containing cultures were used to determine the window of increased cell death and this difference set to 100. All compounds were similarly gated and then compared to this maximal window to establish the percent reduction in PI-positive cells.

[2] = target: full-length human PIKFYVE (GST-PIKFYVE) (Homo sapiens (Human), UniProt Q9Y2I7, L932S/Q1183K/Q995L/S1033A/S696N/T998S); assay: PIKfyve biochemical assay (ADP-Glo Kinase assay, Carna Biosciences)
Sequence of full-length human PIKFYVE (GST-PIKFYVE) (Q9Y2I7 whole entry S696N/L932S/Q995L/T998S/S1033A/Q1183K, the tested form may be a part): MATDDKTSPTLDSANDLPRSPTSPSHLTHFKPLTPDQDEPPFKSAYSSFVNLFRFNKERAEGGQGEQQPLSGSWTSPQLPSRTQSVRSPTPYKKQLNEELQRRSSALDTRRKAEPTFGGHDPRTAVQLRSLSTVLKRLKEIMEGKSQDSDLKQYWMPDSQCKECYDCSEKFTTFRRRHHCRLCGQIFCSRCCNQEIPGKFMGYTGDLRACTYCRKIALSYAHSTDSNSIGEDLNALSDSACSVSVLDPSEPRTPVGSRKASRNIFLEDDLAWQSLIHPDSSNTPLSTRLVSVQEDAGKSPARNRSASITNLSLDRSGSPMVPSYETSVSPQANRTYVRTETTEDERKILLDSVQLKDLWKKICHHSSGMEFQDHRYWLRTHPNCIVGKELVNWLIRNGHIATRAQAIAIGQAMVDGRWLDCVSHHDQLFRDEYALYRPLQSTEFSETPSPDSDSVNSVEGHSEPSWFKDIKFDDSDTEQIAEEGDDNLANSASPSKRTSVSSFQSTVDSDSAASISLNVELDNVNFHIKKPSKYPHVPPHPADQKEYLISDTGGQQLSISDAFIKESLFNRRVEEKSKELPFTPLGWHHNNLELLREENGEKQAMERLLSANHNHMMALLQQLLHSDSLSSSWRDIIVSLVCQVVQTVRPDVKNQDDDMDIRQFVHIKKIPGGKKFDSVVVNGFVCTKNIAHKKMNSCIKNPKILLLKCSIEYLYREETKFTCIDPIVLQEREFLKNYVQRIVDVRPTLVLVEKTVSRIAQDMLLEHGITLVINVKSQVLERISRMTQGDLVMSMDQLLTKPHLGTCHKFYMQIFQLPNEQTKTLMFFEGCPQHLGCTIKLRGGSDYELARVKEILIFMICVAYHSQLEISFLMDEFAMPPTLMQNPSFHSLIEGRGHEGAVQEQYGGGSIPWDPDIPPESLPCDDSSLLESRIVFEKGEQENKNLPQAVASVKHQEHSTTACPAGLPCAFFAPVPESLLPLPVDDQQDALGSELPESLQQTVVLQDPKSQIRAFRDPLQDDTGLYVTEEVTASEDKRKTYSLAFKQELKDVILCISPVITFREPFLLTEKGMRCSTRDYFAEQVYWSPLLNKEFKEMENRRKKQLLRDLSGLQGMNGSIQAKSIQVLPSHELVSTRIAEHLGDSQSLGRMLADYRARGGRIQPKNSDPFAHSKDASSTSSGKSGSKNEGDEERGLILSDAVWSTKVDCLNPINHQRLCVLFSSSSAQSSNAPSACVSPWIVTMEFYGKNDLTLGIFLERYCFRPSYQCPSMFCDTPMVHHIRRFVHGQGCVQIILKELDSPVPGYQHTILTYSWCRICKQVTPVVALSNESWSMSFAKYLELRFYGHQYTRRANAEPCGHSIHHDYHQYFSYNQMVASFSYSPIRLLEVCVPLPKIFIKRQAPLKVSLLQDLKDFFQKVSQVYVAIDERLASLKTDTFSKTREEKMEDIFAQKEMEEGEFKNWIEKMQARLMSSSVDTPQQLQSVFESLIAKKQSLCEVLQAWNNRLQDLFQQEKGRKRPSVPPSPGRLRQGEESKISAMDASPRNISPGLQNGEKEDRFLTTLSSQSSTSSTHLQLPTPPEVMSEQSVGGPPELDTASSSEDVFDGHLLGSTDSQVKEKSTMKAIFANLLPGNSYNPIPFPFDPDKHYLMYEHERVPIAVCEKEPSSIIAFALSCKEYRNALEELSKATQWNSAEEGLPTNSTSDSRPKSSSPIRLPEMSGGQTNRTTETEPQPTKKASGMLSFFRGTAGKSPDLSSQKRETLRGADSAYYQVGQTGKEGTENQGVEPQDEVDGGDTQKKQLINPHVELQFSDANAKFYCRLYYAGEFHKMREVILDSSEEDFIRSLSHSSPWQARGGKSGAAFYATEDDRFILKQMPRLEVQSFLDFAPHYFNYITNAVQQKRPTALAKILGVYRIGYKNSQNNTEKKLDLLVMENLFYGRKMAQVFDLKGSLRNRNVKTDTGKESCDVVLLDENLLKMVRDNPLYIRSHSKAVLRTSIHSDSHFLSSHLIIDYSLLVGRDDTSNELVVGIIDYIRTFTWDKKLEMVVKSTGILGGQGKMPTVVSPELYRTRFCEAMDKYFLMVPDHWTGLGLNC
From the text: PIKfyve Biochemical Assay. The biochemical PIKFyve inhibition assays were run by Carna Biosciences according to proprietary methodology based on the Promega ADP-Glo™ Kinase assay. A full-length human PIKFYVE [1-2098(end) amino acids and S696N, L932S, Q995L, T998S, S1033A and Q1183K of the protein having the sequence set forth in NCBI Reference Sequence No. NP_055855.2] was expressed as N-terminal GST-fusion protein (265 kDa) using baculovirus expression system. GST-PIKFYVE was purified by using glutathione sepharose chromatography and used in an ADP-Glo™ Kinase assay (Promega). Reactions were set up by adding the test compound solution, substrate solution, ATP solution and kinase solution, each at 4× final concentrations. Reactions were prepared with assay buffer (50 mM MOPS, 1 mM DTT, pH7.2), mixed, and incubated in black 384 well polystyrene plates for 1 hour at room temperature. ADP-Glo™ reagent was then added for 40 minutes, followed by kinase detection reagent for an additional 40 minutes. The kinase activity was evaluated by detecting relative light units on a luminescence plate reader. Samples were run in duplicate from 10 μM to 3 nM. […] IC50 values were calculated from concentration vs % inhibition curves by fitting to a four-parameter logistic curve.
The biochemical PIKFyve inhibition assays were run by Carna Biosciences according to proprietary methodology based on the Promega ADP-Glo™ Kinase assay. A full-length human PIKFYVE [1-2098(end) amino acids and S696N, L932S, Q995L, T998S, S1033A and Q1183K of accession number NP_055855.2] was expressed as N-terminal GST-fusion protein (265 kDa) using baculovirus expression system. GST-PIKFYVE was purified by using glutathione sepharose chromatography and used in an ADP-Glo™ Kinase assay (Promega).
Reactions were set up by adding the test compound solution, substrate solution, ATP solution and kinase solution, each at 4× final concentrations. Reactions were prepared with assay buffer (50 mM MOPS, 1 mM DTT, pH7.2), mixed, and incubated in black 384 well polystyrene plates for 1 hour at room temperature. ADP-Glo™ reagent was then added for 40 minutes, followed by kinase detection reagent for an additional 40 minutes. The kinase activity was evaluated by detecting relative light units on a luminescence plate reader. Samples were run in duplicate from 10 uM to 3 nM. […] IC50 values were calculated from concentration vs % inhibition curves by fitting to a four-parameter logistic curve.

[3] = target: PIKfyve (PIKFYVE-NanoLuc fusion in HEK293 cells) (Homo sapiens (Human), UniProt Q9Y2I7); assay: NanoBRET TE Intracellular Kinase Assay, K-8 (Promega) cell-based assay; conditions: 2 hours, read-out: hPIKfyve BRET IC50
Sequence of PIKfyve (PIKFYVE-NanoLuc fusion in HEK293 cells) (Q9Y2I7 whole entry, the tested form may be a part): as the sequence (Q9Y2I7 whole entry S696N/L932S/Q995L/T998S/S1033A/Q1183K, the tested form may be a part) above, with N696S, S932L, L995Q, S998T, A1033S, K1183Q counted along it
Protocol: NanoBRET™ TE Intracellular Kinase Assay, K-8 (Promega) Cell-Based Assay. Intracellular inhibition of PIKfyve was assayed using Promega's NanoBRET™ TE Intracellular Kinase Assay, K-8 according to manufacturer's instructions. A dilution series of test compounds was added for 2 hours to HEK293 cells transfected for a minimum of 20 hours with PIKFYVE-NanoLuc® Fusion Vector (Promega) containing a full-length PIKfyve according to manufacturer's specifications in a 96-well plate. Kinase activity was detected by addition of a NanoBRET™ tracer reagent, which was a proprietary PIKfyve inhibitor appended to a fluorescent probe (BRET, bioluminescence resonance energy transfer). Test compounds were tested at concentrations of 10, 3, 1, 0.3, 0.1, 0.03, 0.01, 0.003 μM. BRET signals were measured by a GloMax®Discover Multimode Microplate Reader (Promega) using 0.3 sec/well integration time, 450BP donor filter and 600LP acceptor filters. Active test compounds that bound PIKfyve and displaced the tracer reduced BRET signal. IC50 values were then calculated by fitting the data to the normalized BRET ratio.

[4] = ADP-Glo, full-length human PIKFYVE, read-out: hPIKfyve IC50

Row | IC50 [2, 4] [nM] | Compound | also measured
1 | – | Cc1cccc(/C=N/Nc2cc(N3CCOCC3)nc(OCCc3ccc(CN)cc3)n2)c1 | IC50 [1]: 1120 nM
2 | – | c1ccc(-c2cccc(-c3cc(N4CCOCC4)n4nc(-c5ccncc5)cc4n3)n2)cc1 | IC50 [1]: 230 nM
3 | – | Oc1cc(-c2ccccc2)nn1-c1cc(N2CCOCC2)n2nc(-c3ccncc3)nc2n1 | IC50 [1]: 693 nM
4 | – | Oc1cc(C2CCOCC2)nn1-c1cc(N2CCOCC2)n2nc(-c3ccncc3)cc2n1 | IC50 [1]: 9100 nM
5 | – | c1ccc(-c2ccnc(-c3cc(N4CCOCC4)nc(OCc4ccncc4)n3)n2)cc1 | IC50 [1]: 1450 nM
6 | – | c1ccc(N2CCc3c(OCc4cccnc4)nc(N4CCOCC4)nc32)cc1 | IC50 [1]: 2680 nM
7 | – | Fc1cccc(-c2ccnn2-c2nc(N3CCOCC3)c3ncccc3n2)c1 | IC50 ([2]; values plotted in FIG. 7, read-out: PIKFYVE Biochemistry (IC50)): > 10000 nM; IC50 [1]: 5750 nM
8 | 10 to 100 | c1ccc(-c2ccn(-c3nc(N4CCOCC4)c4ncccc4n3)n2)cc1 [compound 8, 4-(2-(3-phenyl-1H-pyrazol-1-yl)pyrido[3,2-d]pyrimidin-4-yl)morpholine] | IC50 [3]: 100 to 1000 nM
9 | 10 to 100 | c1ccc(-c2ccn(-c3nc(N4CCOCC4)c4ncc(C5CCCCO5)cc4n3)n2)cc1 (centres unmarked) [compound 18, 4-(2-(3-Phenyl-1H-pyrazol-1-yl)-7-(tetrahydro-2H-pyran-2-yl)pyrido[3,2-d]pyrimidin-4-yl)morpholine] | IC50 [3]: 100 to 1000 nM
10 | 10 to 100 | c1ccc(-c2ccn(-c3nc(N4CCOCC4)c4ncc(C5CCOCC5)cc4n3)n2)cc1 [compound 20, 4-[2-(3-phenylpyrazol-1-yl)-7-tetrahydropyran-4-yl-pyrido[3,2-d]pyrimidin-4-yl]morpholine] | IC50 [3]: 100 to 1000 nM
11 | 10 to 100 | C1=C(c2cnc3c(N4CCOCC4)nc(-n4ccc(-c5ccccc5)n4)nc3c2)CCOC1 [compound 21, 4-(7-(3,6-dihydro-2H-pyran-4-yl)-2-(3-phenyl-1H-pyrazol-1-yl)pyrido[3,2-d]pyrimidin-4-yl)morpholine] | IC50 [3]: 10 to 100 nM
12 | 10 to 100 | c1ccc(-c2ccn(-c3nc(N4CCOCC4)c4ncc(C5CCCO5)cc4n3)n2)cc1 (centres unmarked) [compound 22, 4-(2-(3-phenyl-1H-pyrazol-1-yl)-7-(tetrahydrofuran-2-yl)pyrido[3,2-d]pyrimidin-4-yl)morpholine] | IC50 [3]: 100 to 1000 nM
13 | 10 to 100 | Cc1cccc(/C=N/Nc2nc(N3CCOCC3)c3ncccc3n2)c1 [compound 24, (E)-4-(2-(2-(3-methylbenzylidene)hydrazinyl)pyrido[3,2-d]pyrimidin-4-yl)morpholine] | IC50 [3]: 10 to 100 nM
14 | 1000 to 10000 | c1cnc2c(N3CCOCC3)nc(-c3ccnc(N4CCOCC4)n3)nc2c1 [compound 51, 4-[4-(4-morpholinopyrido[3,2-d]pyrimidin-2-yl)pyrimidin-2-yl]morpholine] | –
15 | 1000 to 10000 | CC(C)(C)OC(=O)N1CCN(c2nccc(-c3nc(N4CCOCC4)c4ncccc4n3)n2)CC1 [compound 55, tert-butyl 4-[4-(4-morpholinopyrido[3,2-d]pyrimidin-2-yl)pyrimidin-2-yl]piperazine-1-carboxylate] | –
16 | 10 to 100 | c1cncc(Cc2nc(N3CCOCC3)c3ncccc3n2)c1 [compound 72] | –

Row | IC50 [2, 4] [nM] | Compound | also measured
17 | 100 to 1000 | O=C(c1cccnc1)c1nc(N2CCOCC2)c2ncccc2n1 [compound 73] | –
18 | 100 to 1000 | c1coc(-c2nc(N3CCOCC3)c3ncccc3n2)c1 [compound 74] | –
19 | 10 to 100 | c1cncc(Oc2nc(N3CCOCC3)c3ncccc3n2)c1 [compound 75] | –
20 | 100 to 1000 | Cc1cccc(CCNc2nc(N3CCOCC3)c3ncc(C(O)c4cccnc4)cc3n2)c1 (centres unmarked) [compound 76] | –
21 | 100 to 1000 | Cc1cccc(CCNc2nc(N3CCOCC3)c3ncc(C(=O)c4cccnc4)cc3n2)c1 [compound 77] | –
22 | 100 to 1000 | Cc1cccc(CCNc2nc(N3CCOCC3)c3ncc(Cc4cccnc4)cc3n2)c1 [compound 78] | –
23 | 1000 to 10000 | Clc1nc(N2CCOCC2)c2ncc(Cc3cccnc3)cc2n1 [compound 82] | –
24 | 1000 to 10000 | Fc1cccc(Nc2nc(N3CCOCC3)c3ncc(Cc4cccnc4)cc3n2)c1 [compound 83] | –
25 | 1000 to 10000 | c1ccc(Oc2nc(N3CCOCC3)c3ncc(Cc4cccnc4)cc3n2)cc1 [compound 84] | –
26 | 100 to 1000 | c1ccc(-c2nccc(-c3nc(N4CCOCC4)c4ncc(Cc5cccnc5)cc4n3)n2)cc1 [compound 85] | –
27 | 100 to 1000 | Fc1cccc(-c2nccc(-c3nc(N4CCOCC4)c4ncc(Cc5cccnc5)cc4n3)n2)c1 [compound 86] | –
28 | 100 to 1000 | c1ccc(Nc2nc(N3CCOCC3)c3ncc(C4CCCO4)cc3n2)cc1 (centres unmarked) [compound 87] | –
29 | 1000 to 10000 | c1ccc(Oc2nc(N3CCOCC3)c3ncc(C4CCCO4)cc3n2)cc1 (centres unmarked) [compound 88] | –
30 | – | Cc1cccc(/C=N/Nc2nc(N3CCOCC3)c3nc(-c4ccncc4)n(C)c3n2)c1 [drawing 308] | IC50 [1]: 4720 nM
31 | – | Cc1cccc(/C=N/Nc2nc(N3CCOCC3)c3ncccc3n2)c1 [drawing 311] | IC50 [1]: 8210 nM
